# Measured values from US9233977B2, “Leucine-rich repeat kinase enzyme activity” (Merck Sharp & Dohme Corp., priority 2010, dated 2016).
# Molecular target: T1, LRRK2 G2019S mutant kinase (Homo sapiens, UniProt Q5S007, G2019S)
# T1 construct: GST; purchased Invitrogen PV4882
# Experiment: LRRK2 G2019S LanthaScreen TR-FRET kinase assay
# Type: biochemical
# Settings: LRRK2 G2019S GST-tagged protein, 75 nM Fluorescein-ERM (LRRKtide), 100 μM ATP, 1 hour at room temperature; read-out: IC50 (potency)
# Procedure: The final solvent concentration in the assay was 1% DMSO. […] Generation of raw data and workup of data to derive the IC50 (potency) and maximal inhibition at concentrations tested were performed using Merck's Assay Data Analyzer (ADA) software.
# The IC50 (potency) was evaluated for the example compounds presented above.
# T1 sequence (Q5S007 whole entry G2019S): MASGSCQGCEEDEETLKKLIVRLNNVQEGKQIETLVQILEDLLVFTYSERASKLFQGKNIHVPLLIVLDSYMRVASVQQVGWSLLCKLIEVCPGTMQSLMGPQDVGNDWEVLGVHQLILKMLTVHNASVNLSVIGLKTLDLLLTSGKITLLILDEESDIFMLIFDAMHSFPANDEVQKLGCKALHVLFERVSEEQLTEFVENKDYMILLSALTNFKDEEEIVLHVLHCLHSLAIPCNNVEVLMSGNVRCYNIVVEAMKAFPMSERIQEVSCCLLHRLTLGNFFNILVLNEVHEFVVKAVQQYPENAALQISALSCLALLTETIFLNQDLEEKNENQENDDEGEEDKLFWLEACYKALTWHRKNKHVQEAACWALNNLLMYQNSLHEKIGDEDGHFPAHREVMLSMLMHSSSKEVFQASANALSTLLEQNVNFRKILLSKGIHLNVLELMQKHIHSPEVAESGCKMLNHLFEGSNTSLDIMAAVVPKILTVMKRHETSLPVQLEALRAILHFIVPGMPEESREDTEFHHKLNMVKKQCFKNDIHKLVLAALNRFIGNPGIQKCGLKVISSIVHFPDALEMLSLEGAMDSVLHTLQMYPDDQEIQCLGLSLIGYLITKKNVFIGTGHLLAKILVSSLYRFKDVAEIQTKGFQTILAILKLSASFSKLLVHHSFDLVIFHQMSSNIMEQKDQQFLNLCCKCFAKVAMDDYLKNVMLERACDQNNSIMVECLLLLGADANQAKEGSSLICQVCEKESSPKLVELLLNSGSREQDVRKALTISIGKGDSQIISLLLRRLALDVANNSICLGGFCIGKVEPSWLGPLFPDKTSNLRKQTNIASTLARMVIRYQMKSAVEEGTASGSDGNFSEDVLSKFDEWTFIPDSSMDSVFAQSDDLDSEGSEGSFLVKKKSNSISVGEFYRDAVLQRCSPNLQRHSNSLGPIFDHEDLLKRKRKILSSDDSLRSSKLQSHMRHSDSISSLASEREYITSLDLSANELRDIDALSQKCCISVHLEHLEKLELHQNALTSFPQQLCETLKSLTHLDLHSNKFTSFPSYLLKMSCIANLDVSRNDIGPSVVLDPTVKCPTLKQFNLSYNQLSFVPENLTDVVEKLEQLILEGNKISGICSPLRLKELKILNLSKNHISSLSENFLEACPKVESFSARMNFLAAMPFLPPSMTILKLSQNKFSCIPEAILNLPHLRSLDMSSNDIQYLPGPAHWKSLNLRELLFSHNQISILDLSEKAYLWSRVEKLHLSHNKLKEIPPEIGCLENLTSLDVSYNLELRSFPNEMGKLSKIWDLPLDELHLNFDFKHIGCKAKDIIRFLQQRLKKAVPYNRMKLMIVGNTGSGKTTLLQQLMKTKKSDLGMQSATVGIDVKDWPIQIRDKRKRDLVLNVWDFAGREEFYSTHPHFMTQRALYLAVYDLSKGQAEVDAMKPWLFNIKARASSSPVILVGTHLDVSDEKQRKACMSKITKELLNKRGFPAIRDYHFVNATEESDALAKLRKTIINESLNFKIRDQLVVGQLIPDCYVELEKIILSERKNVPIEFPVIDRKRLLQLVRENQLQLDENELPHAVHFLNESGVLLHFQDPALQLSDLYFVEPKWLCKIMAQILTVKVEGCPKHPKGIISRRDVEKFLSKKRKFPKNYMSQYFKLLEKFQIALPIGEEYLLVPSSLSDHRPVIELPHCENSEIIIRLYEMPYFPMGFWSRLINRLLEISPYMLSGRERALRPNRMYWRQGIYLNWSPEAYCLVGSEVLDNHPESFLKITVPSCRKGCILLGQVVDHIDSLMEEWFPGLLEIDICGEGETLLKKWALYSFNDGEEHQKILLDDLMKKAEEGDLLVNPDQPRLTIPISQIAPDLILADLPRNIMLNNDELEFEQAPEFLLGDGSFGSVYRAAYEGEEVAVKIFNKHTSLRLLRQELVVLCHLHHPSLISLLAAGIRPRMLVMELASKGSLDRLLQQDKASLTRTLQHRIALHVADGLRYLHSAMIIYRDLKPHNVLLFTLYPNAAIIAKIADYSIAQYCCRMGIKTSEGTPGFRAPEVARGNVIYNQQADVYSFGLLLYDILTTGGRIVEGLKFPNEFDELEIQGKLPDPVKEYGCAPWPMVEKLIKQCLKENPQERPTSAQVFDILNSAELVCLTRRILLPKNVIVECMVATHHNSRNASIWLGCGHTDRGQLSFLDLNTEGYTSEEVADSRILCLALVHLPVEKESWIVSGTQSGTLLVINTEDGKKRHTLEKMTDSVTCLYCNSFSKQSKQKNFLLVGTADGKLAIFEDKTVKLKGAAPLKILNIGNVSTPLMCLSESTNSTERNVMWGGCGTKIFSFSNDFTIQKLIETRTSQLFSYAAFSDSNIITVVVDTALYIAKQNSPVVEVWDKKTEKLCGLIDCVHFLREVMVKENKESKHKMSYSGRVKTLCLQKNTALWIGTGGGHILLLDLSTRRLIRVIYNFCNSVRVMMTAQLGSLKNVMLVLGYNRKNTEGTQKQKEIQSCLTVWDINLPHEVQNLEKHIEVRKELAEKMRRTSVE
row,Structure (SMILES),IC50 [nM]
1,"CSc1sc(-c2cc[nH]n2)c2c1C(=O)NCC2 [Example 1, 3-(Methylsulfanyl)-1-(1H-pyrazol-3-yl)-6,7-dihydrothieno[3,4-c]pyridin-4(5H)-one]",460
2,"CSc1sc(-c2cc[nH]n2)c2c1C(=O)NC[C@@H]2C [Example 21, (7R)-7-methyl-3-(methylsulfanyl)-1-(1H-pyrazol-3-yl)-6,7-dihydrothieno[3,4-c]pyridin-4(5)-one]",160
3,CSc1sc(-c2cc[nH]n2)c2c1C(=O)N(C(=O)OC(C)(C)C)C(C)C2 (centres unmarked) [Example 4],4800
4,"CSc1sc(-c2cc[nH]n2)c2c1C(=O)NC(C(F)(F)F)C2 (centres unmarked) [Example 9, 6-trifiuoromethyl-3-(methylsulfanyl)-1-(1H-pyrazol-3-yl)-6,7-dihydrothieno[3,4-c]pyridin-4(5)-one]",190
5,"COCC1Cc2c(-c3cc[nH]n3)sc(SC)c2C(=O)N1 (centres unmarked) [Example 11, 6-methoxymethyl-3-(methylsulfanyl)-1-(1H-pyrazol-3-yl)-6,7-dihydrothieno[3,4-c]pyridin-4(5)-one]",340
6,"O=C1NC(Cc2ccccc2)Cc2c(-c3cc[nH]n3)sc(SC3CCCC3)c21 (centres unmarked) [Example 33, 6-benzyl-3-(cyclopentylsulfanyl)-1-(1H-pyrazol-3-yl)-6,7-dihydrothieno[3,4-c]pyridin-4(5)-one]",530
7,"CCSc1sc(-c2cc[nH]n2)c2c1C(=O)NCC2 [Example 42, 3-ethylsulfanyl-1-(1H-pyrazol-3-yl)-6,7-dihydrothieno[3,4-c]pyridin-4(5)-one]",360

# Now from value to molecule:
row,IC50 [nM],Structure (SMILES)
1,3300,CSc1sc(-c2cc[nH]n2)c2c1C(=O)N(c1ccc(C)cc1)CC2 [Example 83]
2,3000,"CSc1sc(-c2cc[nH]n2)c2c1C(=O)N(Cc1cccnc1Cl)CC2 [Example 58, 5-[(2-chloropyridin-3-yl)methyl]-3-(methylsulfanyl)-1-(1H-pyrazol-3-yl)-6,7-dihydrothieno[3,4-c]pyridin-4(5)-one]"
3,330,"C[C@@H]1Cc2c(-c3cc[nH]n3)sc(NC3CCCC3)c2C(=O)N1 [Example 98, (6R)-3-(cyclopentylamino)-6-methyl-1-(1H-pyrazol-3-yl)-6,7-dihydrothieno[3,4-c]pyridin-4(5H)-one]"
4,4300,"CSc1sc(-c2cc[nH]n2)c2c1C(=O)N(CC1CCNC1)CC2 (centres unmarked) [Example 62, 3-(methylsulfanyl)-1-(1H-pyrazol-3-yl)-5-(pyrrolidin-3-ylmethyl)-6,7-dihydrothieno[3,4-c]pyridin-4(5H)-one]"
5,3400,"C[C@@H]1Cc2c(-c3cc[nH]n3)sc(SC3(C(=O)O)CCCC3)c2C(=O)N1 [Example 50, 1-{[(6R)-6-methyl-4-oxo-1-(1H-pyrazol-3-yl)-4,5,6,7-tetrahydrothieno[3,4-c]pyridin-3-yl]sulfanyl}cyclopentanecarboxylic acid]"
6,8400,"CSc1sc(-c2cc[nH]n2)c2c1C(=O)N(CC1CCCCO1)CC2 (centres unmarked) [Example 63, 5-[(2-tetrahydropyranyl)methyl]-3-(methylsulfanyl)-1-(1H-pyrazol-3-yl)-6,7-dihydrothieno[3,4-c]pyridin-4(5)-one]"
7,760,"CSc1sc(-c2cc[nH]n2)c2c1C(=O)N(CCC=C(F)F)CC2 [Example 69, 5-(4,4-difluorobut-3-en-1-yl)-3-(methylsulfanyl)-1-(1H-pyrazol-3-yl)-6,7-dihydrothieno[3,4-c]pyridin-4(5)-one]"
8,9200,"CSc1sc(-c2cc[nH]n2)c2c1C(=O)N(CCN1CCOCC1)CC2 [Example 67, 3-(methylsulfanyl)-5-[2-(morpholin-4-yl)ethyl]-1-(1H-pyrazol-3-yl)-6,7-dihydrothieno[3,4-c]pyridin-4(5)-one]"
9,5900,"CSc1sc(-c2cc[nH]n2)c2c1C(=O)N(CCC1CCCNC1)CC2 (centres unmarked) [Example 73, 3-(methylsulfanyl)-5-[2-(3-piperidinyl)ethyl]-1-(1H-pyrazol-3-yl)-6,7-dihydrothieno[3,4-c]pyridin-4(5)-one]"
10,370,"CNc1sc(-c2cc[nH]n2)c2c1C(=O)NCC2C (centres unmarked) [Example 96, 3-(methylamino)-7-methyl-1-(1H-pyrazol-3-yl)-6,7-dihydrothieno[3,4-c]pyridin-4(5H)-one]"
